Like-named read-outs stand apart in the source and are kept apart here. Square brackets hold non-standard residues; d marks the D form. Ends that are not written are not given here. Peptide text beside a SMILES is read from it. * marks the point of attachment. Cbz = O=C(OCc1ccccc1)*
Experiments:
BCL10 [1] = target: T1, BCL10 (Homo sapiens, UniProt O95999); assay: Western blot of BCL10 protein level in DLBCL cells; assay type: cell-based; set-up: Western blot of BCL10 in cells treated with different concentrations of BCL10-P4 for 8 h; endogenous in cells; host or cells: HBL1, TMD8, OCI-LY1 DLBCL cells; conditions: HBL1 cells, BCL10-P4 1 h pretreatment, then MG132 or chloroquine 3 h; Figure 4H
T1 sequence (O95999 1-233): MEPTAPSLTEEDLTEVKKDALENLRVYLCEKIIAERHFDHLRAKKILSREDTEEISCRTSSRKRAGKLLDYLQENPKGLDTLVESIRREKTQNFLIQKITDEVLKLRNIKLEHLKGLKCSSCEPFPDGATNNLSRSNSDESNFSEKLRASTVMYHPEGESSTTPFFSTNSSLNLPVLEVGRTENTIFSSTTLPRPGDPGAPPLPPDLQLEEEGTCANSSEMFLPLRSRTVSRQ
Method: Cell pellets were lysed in RIPA buffer (50 mM Tris at pH 8.0, 150 mM NaCl, 1% NP-40, 1 mM EDTA, and 1X protease inhibitor cocktail) or RIPA buffer containing 0.1% SDS. Equal amounts of protein extracts were separated by SDS-PAGE and blotted onto polyvinylidene difluoride (PVDF) membranes.

BCL10 [2] = target: T1, BCL10; assay: In vitro BCL10 filamentation assay (negative-stain electron microscopy); assay type: biochemical; conditions: MBP-BCL10 and peptide premixed at 1:1 or 1:2 molar ratio, RT 30 min, then TEV cleavage
Method: MBP-BCL10 was expressed and purified as previously described. MBP-BCL10 and BCL10 peptide inhibitors were premixed at a 1:1 or 1:2 molar ratio at RT for 30 minutes before adding TEV to cleave the MBP tag. 5 μL of reaction mixture was applied to copper grids (Beijing Zhongjingkeyi Technology Co., Cat. No. BZ10024a), where it remained for 1 minute and was then negatively stained with 3% uranyl acetate for 1 minute, air-dried and imaged with a JEM-1230 TEM at 100 keV.

TMD8 cells = assay type: cell-based, human
Excerpt: (§1) GraphPad Prism software was used to determine GI50 values.

HBL1 cells [3] = assay type: cell-based
Excerpt: as §1

[4] = tested on: NF-κB target genes in TMD8 cells; assay: RNA-seq gene set enrichment analysis of NF-κB target genes; assay type: cell-based; conditions: BCL10-P4 5 μM, ibrutinib 10 nM, 8 h and 24 h, duplicate
Method: 1:100 dilution for 15 min at room temperature in the dark. Signals from FL1 and FL3 channels were collected by MACSQuant analyzer and data were analyzed using FloJo (Ashland, OR). Early apoptosis was defined as AnnexinV+/PI-, and late apoptosis as AnnexinV+/PI+. Percentage of apoptotic cells were the sum of early and late apoptotic cells.
For cell cycle analysis, cells were washed twice with cold PBS and fixed in 70% ethanol overnight at 4°C. Fixed cells were collected at 1800 rpm for 10 min and stained with PBS containing PI and DNase-free RNase A (Sigma-Aldrich) for 1h at room temperature in the dark. DNA content was measured by BD LSRII flow cytometer and data were analyzed in FloJo. […]
All extracts were treated with DNase in column during RNA purification. RNA integrity was determined on an Agilent 2100 Bioanalyzer (Agilent Technologies, SantaClara, CA). […]
RNAseq raw data are analyzed with the Salmon software 30 using default settings. Log2Fold changes and P values of differentiation gene expression between different samples are calculated using the Bioconductor - DESeq2 R package 31 using default settings. […]
Six-week-old female NOD prkdc-/- IL-2Rg-/- (NCG) mice purchased from GemPharmatech Co., Lt d we re raised in a SPF- level Laboratory Animal Room. […] Tumor volumes were monitored by a digital caliper every other day and calculated using the formula: (smallest diameter2 x largest diameter)/2. […]

BPH-1 = assay: Growth inhibition, noncancerous cell line; assay type: cell-based
Excerpt: as §1

293T = assay: Growth inhibition, noncancerous cell line; assay type: cell-based
Excerpt: as §1

SUDHL6 = assay type: cell-based, human; conditions: 24 h
Excerpt: as §1

SUDHL4 = assay type: cell-based; conditions: 24 h
Excerpt: as §1

RCK8 = assay type: cell-based; conditions: 24 h
Excerpt: as §1

KARPAS422 = assay type: cell-based; conditions: 24 h
Excerpt: as §1

DLBCL cell lines = assay type: cell-based
Excerpt: as §1

OCI-LY3 = assay type: cell-based; conditions: 24 h
Excerpt: as §1

[5] = tested on: ABC-DLBCL cells (HBL1 and TMD8 cell lines); assay type: cell-based; conditions: 72 h
Excerpt: as §1

Jurkat cells = assay: Growth inhibition; assay type: cell-based; conditions: Figure S3E; exposure time not given
Excerpt: as §1

[6] = tested on: HBL1, TMD8 and OCI-LY1 cells; assay: Intracellular pharmacokinetics of biotinylated BCL10-P4 (streptavidin blot); assay type: in vitro ADME
Method: (§2) hActin- F: 5’-[…]-3’
(§3) hIL6-R: 5’- […]-3 ’.
(§4) hBcl10-F: 5’-[…] TAGAAA-3’
(§5) hBcl10-R: 5’-[…] T-3’
(§6) 1x105 HBL1, TMD8, OCl-LY 1 , OCl-LY 1 , U2932, MD901 or RCK8 cells were seeded in 12-well plate
(§7) wa sh e d and lysed with RIPA buffer.
(§8) immunoblotting with Streptavidin (Cell signaling, cat. #3999S). […]

HBL1 cells [7] = assay: Intracellular pharmacokinetics, BCL10-P4 versus DRI-BCL10-P4; conditions: Figure 6B and S7A; western blot
Method: MBP-Bcl10 was expressed and purified as previously described {Qiao, 2013 #85}. Purified
mM NaCl, 1% NP-40) at 4 °C for 1 hour, followed by addition of 5% BSA blocked S t re ptavidin (SAV)
Immunoprecipitant were washed 5 times with IP buffer and separated by SDS-PA G E . […]
as §2, §3, §4, §5, §6, §7, §8

[8] = noncancerous cell line, Figure S2C
[9] = 5 μM biotinylated BCL10-P4, cell lysate blotted with streptavidin

CCN(CC)CCCC(C)Nc1ccnc2cc(Cl)ccc12 (centres unmarked) [CHL, chloroquine]
BCL10 degradation by BCL10-P4 with proteasome or autophagy inhibitor (BCL10 [1]): prevented BCL10 degradation by BCL10-P4

CC[C@@H](C)[C@@H](NC(=O)[C@@H](CC(C)C)NC(=O)[C@@H](CO)NC(=O)[C@H](N)CCCNC(=N)N)C(=O)N[C@H](CCCCN)C(=O)N[C@H](CCCCN)C(=O)N[C@H](C)C(=O)N[C@H](CCCNC(=N)N)C(=O)N[C@H](CC(C)C)C(=O)N[C@H](Cc1c[nH]cn1)C(=O)N[C@H](CC(=O)O)C(=O)N[C@H](Cc1ccccc1)C(=O)N[C@H](Cc1c[nH]cn1)C(=O)N[C@H](CCCNC(=N)N)C(=O)N[C@H](CCCCN)C(=O)N[C@H](CCCCN)C(=O)N[C@H](Cc1c[nH]c2ccccc12)C(=O)N[C@H](CCCCN)C(=O)N[C@H](CCSC)C(=O)N[C@H](CCCNC(=N)N)C(=O)N[C@H](CCCNC(=N)N)C(=O)N[C@H](CC(N)=O)C(=O)N[C@H](CCC(N)=O)C(=O)N[C@H](Cc1ccccc1)C(=O)N[C@H](Cc1c[nH]c2ccccc12)C(=O)N[C@@H](C(=O)N[C@H](CCCCN)C(=O)N[C@@H](C(=O)N[C@H](CCC(N)=O)C(=O)N[C@H](CCCNC(=N)N)C(=O)N[C@H](CC(=O)O)C(=O)O)[C@H](C)CC)[C@H](C)CC [DRI-BCL10-P2] (H-[dR][dS][dL][dI][dK][dK][dA][dR][dL][dH][dD][dF][dH][dR][dK][dK][dW][dK][dM][dR][dR][dN][dQ][dF][dW][dI][dK][dI][dQ][dR][dD]-OH; N-terminus and C-terminus assumed)
BCL10 filament formation (EM) (BCL10 [2]): inhibited Bc10 filament formation in vitro
GI50 (TMD8 cells): 13.6 ± 2.3 µM
GI50 (HBL1 cells [3]): 7.64 ± 3.5 µM

CC(C)C[C@@H](C=O)NC(=O)[C@H](CC(C)C)NC(=O)[C@H](CC(C)C)NC(=O)OCc1ccccc1 [MG132] (Cbz-Leu-Leu-Leu-aldehyde)
BCL10 degradation by BCL10-P4 with proteasome or autophagy inhibitor (BCL10 [1]): negligibly prevented BCL10 degradation

C=CC(=O)N1CCC[C@@H](n2nc(-c3ccc(Oc4ccccc4)cc3)c3c(N)ncnc32)C1 [ibrutinib]
expression of NF-κB target genes (GSEA) [4]: comparable to the effect of ibrutinib treatment

DRQIKIWFQNRRMKWKKEKIIAERHF [BCL10-P1]
GI50 (HBL1 cells [3]; 72 h): 53.9 ± 10.3 µM

DRQIKIWFQNRRMKWKKKGLDTLVESIRREKTQ [BCL10-P5]
GI50 (TMD8 cells; 72 h): 49 ± 33.9 µM
GI50 (HBL1 cells [3]; 72 h): 66.5 ± 9.2 µM

DRQIKIWFQNRRMKWKKRHFDHLRAKKILSR [BCL10-P2]
growth inhibition effect on BPH-1 (BPH-1): neither BCL10-P2 nor BCL10-P4 displayed a growth inhibition effect
growth inhibition effect on 293T (293T): neither BCL10-P2 nor BCL10-P4 displayed a growth inhibition effect
GI50 (SUDHL6): 5.42 ± 3.09 µM
GI50 (TMD8 cells; 72 h): 3.35 ± 1.1 µM
GI50 (SUDHL4): 2.56 ± 0.23 µM
GI50 (RCK8): 16 ± 12.3 µM
GI50 (KARPAS422): 5.39 ± 0.2 µM
GI50 (DLBCL cell lines): < 10 µM
GI50 (OCI-LY3): 5.51 ± 0.9 µM
GI50 (HBL1 cells [3]; 72 h): 5.1 ± 0.8 µM
GI50 [5]: 3 to 6 µM

DRQIKIWFQNRRMKWKKRTSSRKRAGKLLDYLQE [BCL10-P4]
growth inhibition effect on BPH-1 (BPH-1; [8]): neither BCL10-P2 nor BCL10-P4 displayed a growth inhibition effect
growth inhibition effect on 293T (293T; [8]): neither BCL10-P2 nor BCL10-P4 displayed a growth inhibition effect
GI50 (Jurkat cells): 10.3 ± 2.29 µM
GI50 (TMD8 cells; 72 h, Figure 2B, mean ± SD of three independent experiments, read-out: GI50 TMD8): 4.7 ± 1.8 µM
GI50 (DLBCL cell lines; only exception U2932, read-out: GI50 values on most ABC-DLBCL cell lines): < 10 µM
GI50 (HBL1 cells [3]; 72 h, Figure 2B, mean ± SD of three independent experiments, read-out: GI50 HBL1): 4.2 ± 1 µM
GI50 ([5]; text summary of Figure 2A-B, read-out: GI50 in the HBL1 and TMD8 cells): 3 to 6 µM
cellular uptake (entry into cells) ([6]; 5 μM biotinylated BCL10-P4, 1-24 h, cell lysate blotted with streptavidin): comparable efficiency
time of disappearance from cells [6, 9]: approximately 24 h
time of peak intracellular level [6, 9]: 1 to 2 h
intracellular level after the first 4 h (intracellular stability) (HBL1 cells [7]): decreased rapidly thereafter
uptake by HBL1 cells and level within the first 4 h (HBL1 cells [7]): similarly taken up

Source: paper PMC7546004, “Targeting BCL10 by small peptides for the treatment of B cell lymphoma” (Theranostics, 2020)
